# Test results: patent US20170065533A1 (YISSUM RESEARCH DEVELOPMENT COMPANY OF THE HEBREW …, priority 2011, published 2017)
# Columns and labels:
# [1] = Conjugation efficiency of MAbs to NPs (BCA assay); type: physicochemical; details: INPs conjugated to MAbs
# Experimental: The conjugation efficiency of the macromolecules such as MAbs was determined using the […] Bicinchoninic acid assay (BCA) for protein quantification (Pierce, Ill., USA).
# [2] = Particle size, PDI and zeta potential of nanocarriers; type: physicochemical; details: INPs conjugated to MAbs
# Experimental: mean diameter and particle size distribution measurements were carried out utilizing an ALV Noninvasive Back Scattering High Performance Particle Sizer (ALV-NIBS HPPS, Langen, Germany) at 25° C. and using water as diluent.
# the zeta potential of the NPs was measured using the Malvern zetasizer (Malvern, UK) diluted in HPLC grade water.
# The size and zeta potential of the various NPs were measured in water using a DTS zetasizer (Malvern, UK).
# The mean diameter and the zeta potential of NCs were characterized using Malvern's Zetasizer (Nano series, Nanos-ZS, UK) at 25° C. and using water as diluent.
# Mean diameter and zeta potential of the NCs were characterized using Malvern's Zetasizer (Nano ZSP) at 25° C. For the sample preparation, 200 mg of the anhydrous semi-solid preparation were dissolved in 2 mL HPLC water. The sample was vortexed and further centrifuged (4000 rpm, 10 min). Then, 1.2 mL of the supernatant was collected and centrifuged again (14000 rpm, 10 min). Finally, 1 mL of the obtained supernatant was collected and evaluated.
# [3] = 50 mg/day over one year, cited from earlier work
# [4] = cited from earlier work
# [5] = cited from earlier work; remark: listed apart in the source
compound,measurement,setting,value
"rituximab immunonanoparticles: thiolated PEG-PLGA50,000/PLGA48,000 nanoparticles surface-conjugated to rituximab MAb",Conjugation,[1],86.7%
same,Size,[2],73.75 nm
"C[C@]12CC[C@H](O)CC1=CC[C@@H]1[C@@H]2CC[C@]2(C)C(=O)CC[C@@H]12 [DHEA, dehydroepiandrosterone]","skin status (hydration, epidermal thickness, sebum production, pigmentation)",[3]; aged 60 years and over,improvement of the skin status
same,harmful consequences,[3],no harmful consequences
same,expression of procollagen alpha1 (I) mRNA and protein,"[4]; DHEA (5%) in ethanol:olive oil (1:2), 12 times over 4 weeks, aged and young skin",significantly increase
same,basal expression of MMP-1 mRNA and protein,"[4]; DHEA (5%) topical, 12 times over 4 weeks",significantly decreased
same,expression of TIMP-1 protein,"[4]; DHEA (5%) topical, aged skin",increased
same,maximum solubility in mid chain triglycerides,[5],1.77%
